As usually defined, the EC50 is the concentration that produces a half-maximal response. The term IC50 denotes the concentration that inhibits the measured activity by half.

This is an account of results in patent publication US20070155660A1, “Inhibition of voluntary ethanol consumption with selective melanocortin 4-receptor agonists” (priority 2003, published 2007).

For assay [1], the target named is T1, MC5R (Homo sapiens, UniProt P33032). As to the kind of experiment: cAMP assay in CHO cells expressing a human melanocortin receptor. It counts as cell-based. On the set-up: expressed in transfected cells; host or cells: Chinese hamster ovary (CHO) cells. As to the method: (§1) Chinese hamster ovary cells expressing a human melanocortin receptor were rinsed with calcium-and magnesium-free PBS (Life Technologies), and detached from the tissue culture flasks by 5-minutes incubation with enzyme-free dissociation buffer (S-014-B, Specialty Media). Cells were collected by centrifugation and resuspended in Earle's balanced salt solution (Life Technologies) with addition of 10 mM 4-(2-hydroxyethyl)-1-piperazineethanesulfonic acid (Hepes) buffer, pH 7.5, 5 mM MgCl2, 1 mM glutamine, and 1 mg/ml bovine serum albumin to concentration of 1-5×10^6 cells/ml. Subsequently, cells were counted and the cell suspension was treated with the phosphodiesterase inhibitor 3-isobutyl-1-methylxanthine (to concentration of 0.6 mM).
(§2) A test compound was dissolved in dimethyl sulfoxide (DMSO, 10^−3 to 10^−8 M), diluted with buffer and 0.1 volume of the solution was added to 0.9 volumes of the cell suspension (1 to 5×10^5 cells); final concentration of DMSO was 1%. After 45 minutes at room temperature, cells were lysed by incubation at 100° C. for 5 minutes to release accumulated cAMP. Accumulation of cAMP was measured in an aliquot of the cell lysate with the Amersham (Arlington Heights, Ill.) cAMP detection assay kit (RPA556). The amount of cAMP produced in response to a tested compound was compared to the amount of cAMP produced in response to α-MSH, defined as a 100% agonist. All active peptides were characterized in three independent experiments.
Target sequence in this assay (P33032 whole entry): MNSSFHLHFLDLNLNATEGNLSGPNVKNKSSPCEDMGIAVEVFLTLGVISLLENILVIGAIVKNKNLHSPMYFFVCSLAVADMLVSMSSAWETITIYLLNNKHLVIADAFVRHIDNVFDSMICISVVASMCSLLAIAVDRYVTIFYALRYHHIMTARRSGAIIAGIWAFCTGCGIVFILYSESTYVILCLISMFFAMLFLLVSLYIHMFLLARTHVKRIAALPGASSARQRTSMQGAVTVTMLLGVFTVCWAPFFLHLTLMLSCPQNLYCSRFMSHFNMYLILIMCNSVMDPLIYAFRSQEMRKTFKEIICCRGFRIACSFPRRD

For assay [2], the target named is T2, MC4R (Homo sapiens, UniProt P32245). Described as above. Type of assay: cell-based. On the set-up: expressed in transfected cells; host or cells: Chinese hamster ovary (CHO) cells. As to the method: as §1, §2
Target sequence in this assay (P32245 whole entry): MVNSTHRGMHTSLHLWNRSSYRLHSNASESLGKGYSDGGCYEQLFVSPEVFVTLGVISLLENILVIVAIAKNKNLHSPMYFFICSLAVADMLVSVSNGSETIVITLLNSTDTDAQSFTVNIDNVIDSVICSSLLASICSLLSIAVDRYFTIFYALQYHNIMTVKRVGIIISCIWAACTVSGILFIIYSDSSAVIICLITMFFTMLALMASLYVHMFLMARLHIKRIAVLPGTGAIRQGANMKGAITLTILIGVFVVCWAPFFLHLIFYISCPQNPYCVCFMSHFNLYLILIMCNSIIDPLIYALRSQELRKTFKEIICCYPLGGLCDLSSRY
The target of assay [3] is T1, MC5R. As to the kind of experiment: Competitive binding assay, [125I]-NDP-α-MSH, CHO cell membranes. On the set-up: expressed in transfected cells; host or cells: Chinese hamster ovary (CHO) cells. To be noted: read-out: Binding Assay IC50 hMC-5R. As to the method:
(§3) The peptides of the present invention were evaluated for […] in receptor binding assay. Crude membrane preparations were obtained from Chinese hamster ovary cells expressing human MC3, MC4, and MC5 receptors. Cells were rinsed with phosphate-buffered saline (PBS) lacking CaCl2 or MgCl2 (Life Technologies, Gaithersburg, Md., USA), and then detached with enzyme-free dissociation media (Specialty Media, Lavellette, N.J., USA). Cells were pelleted at 2800×g for 10 minutes and resuspended in membrane buffer (20 mM Tris, pH 7.2, 5 mM ethylenediaminetetraacetic acid) with 5 μg/ml leupeptin, 5 μg/ml aprotinin, 40 μg/ml bacitracin, and 25 μg/m pefabloc (Boehringer Mannheim). The cells were […] with 10 strokes by using a motor-driven Teflon-coated pestle in a glass homogenizer at low speed. The resulting cell suspension was centrifuged at 4100×g, 4° C., for 20 minutes. The pellet was resuspended in fresh membrane buffer with protease inhibitors, aliquoted, snap-frozen in liquid nitrogen, and stored at −80° C. The resulting crude membranes were titrated to determine the optimal level necessary for performing binding studies. Results
(§4) Binding reactions (total volume=[…]) contained MBB (50 mM Tris, pH 7.2, 2 mM CaCl2, 1 mM MgCl2), 0.1% bovine serum albumin, crude membranes prepared from cells expressing human MC3, MC4, or MC5 receptor, 200 pM of [125I]-NDP-α-MSH (Amersham, Arlington Heighs, Ill., USA), and increasing concentrations of unlabeled test compounds dissolved in dimethylsulfoxide (final concentration=2%). Reactions were incubated for 1 hour without shaking and then filtered through 96-well filter plates (Packard), presoaked in 1% polyethyleneimine. Filters were washed 3 times with TNE buffer (50 mM Tris, pH 7.4, 5 mM ethylenediaminetetraacetic acid, 150 mM NaCl), dried and counted by using Microscint-20 in a Topcount scintillation counter (Packard). Nonspecific binding was determined in the presence of 2 μm of unlabeled NDP-α-MSH (Peninsula Laboratories). Active peptides were evaluated in three independent experiments.
Target sequence in this assay (P33032 whole entry): as the sequence (P33032 whole entry) above

Assay [4] has as its target T2, MC4R. The description is as above. On the set-up: expressed in transfected cells; host or cells: Chinese hamster ovary (CHO) cells. As to the method:
as §3, §4
Target sequence in this assay (P32245 whole entry): as the sequence (P32245 whole entry) above

The target of assay [5] is T3, hMC-3R (Homo sapiens, UniProt P41968).
T3 construct: expressed in transfected cells; host or cells: Chinese hamster ovary (CHO) cells
T3 sequence (P41968 whole entry): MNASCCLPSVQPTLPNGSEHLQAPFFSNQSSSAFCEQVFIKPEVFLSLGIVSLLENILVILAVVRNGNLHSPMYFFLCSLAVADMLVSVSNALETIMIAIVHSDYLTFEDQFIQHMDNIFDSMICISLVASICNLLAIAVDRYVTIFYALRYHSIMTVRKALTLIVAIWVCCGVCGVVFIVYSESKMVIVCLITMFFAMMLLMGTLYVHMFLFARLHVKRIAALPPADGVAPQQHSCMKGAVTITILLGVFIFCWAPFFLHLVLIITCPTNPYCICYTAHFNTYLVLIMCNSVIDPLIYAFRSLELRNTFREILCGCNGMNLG
As to the kind of experiment: cAMP assay in CHO cells expressing a human melanocortin receptor. It counts as cell-based. As to the method: as §1
as §2, with “All active peptides were characterized in three independent experiments.” left out
A general note: Cyclic AMP is a second messenger, typically raised through Gs and lowered through Gi signalling.

Assay [6] concerns the target T4, hMC-1R (Homo sapiens, UniProt Q01726).
T4 construct: expressed in transfected cells; host or cells: Chinese hamster ovary (CHO) cells
The assay is described as above. Type of assay: cell-based. As to the method:
as §1
as §2, with “All active peptides were characterized in three independent experiments.” left out

For assay [7], the target named is T3, hMC-3R. As to the kind of experiment: Competitive binding assay, [125I]-NDP-α-MSH, CHO cell membranes. Conditions: read-out: Binding Assay IC50 hMC-3R. As to the method: The peptides of the present invention were evaluated for […] in receptor binding assay. Crude membrane preparations were obtained from Chinese hamster ovary cells expressing human MC3, MC4, and MC5 receptors. Cells were rinsed with phosphate-buffered saline (PBS) lacking CaCl2 or MgCl2 (Life Technologies, Gaithersburg, Md., USA), and then detached with enzyme-free dissociation media (Specialty Media, Lavellette, N.J., USA). Cells were pelleted at 2800×g for 10 minutes and resuspended in membrane buffer (20 mM Tris, pH 7.2, 5 mM ethylenediaminetetraacetic acid) with 5 μg/ml leupeptin, 5 μg/ml aprotinin, 40 μg/ml bacitracin, and 25 μg/m pefabloc (Boehringer Mannheim). […]
as §4, with “Reactions were incubated for 1 hour without shaking and then filtered through 96-well filter plates (Packard), presoaked in 1% polyethyleneimine.” left out, “Active peptides were evaluated in three independent experiments.” left out

Assay [8] concerns AA rats. Conditions: MTII by central infusion; cited from earlier work.
Assay [9] has as its target T2, MC4R. Conditions: cited from earlier work.
Target sequence in this assay (P32245 whole entry, species assumed): as the sequence (P32245 whole entry) above
Assay [10] concerns C57BL/6J mice. As to the kind of experiment: Ethanol consumption following central (i.c.v.) infusion of MC4R agonist. Type of assay: in vivo. Conditions: for reduction of alcohol consumption: 20% ethanol, vs aCSF. From the text: The generation of Mc3r^−/− mice has been described (Chen, S. et al., Nature Genetics (2000) 26: 97-102). Mc3r^−/− mice are born at the expected frequency and are viable and fertile. […] Studies described below utilized male and female Mc3r^−/− and/or Mc3r^+/+ mice of a C57BL/6J genetic background, 8 to 12 weeks of age at the start of experiment. Non-littermate heterozygous (Mc3r^+/−) mice were bred, resulting in Mc3r^−/− and Mc3r ^+/+ F2 littermate mice. Mice were individually housed in polypropylene cages with wood-chip bedding and had ad libitum access to standard rodent chow (Teklad, Madison, Wis.) and water throughout the experiments except where noted. The colony room was maintained at approximately 22° C. with a 12h:12h light:dark cycle. All procedures used in the present research were in compliance with the National Institute of Health guidelines, and the protocols were approved by the University of North Carolina Animal Care and Use Committee.
Naïve mice were anesthetized with a cocktail of ketamine (117 mg/kg) and xylazine (7.92 mg/kg) and surgically implanted with a 26-gauge cannula (Plastic One, Roanoke, Va.) aimed at the left-lateral ventricle using the following stereotaxic coordinates: 0.2 mm posterior to bregma, 1.0 mm lateral to the midline, and 2.3 mm ventral to the skull surface. Mice were allowed to recover for approximately 2 weeks before experimental procedures were initiated. After experimental procedures, cannula placement was verified histologically. The i.c.v. infusions were given in a 1.0 μl volume with a 5.0 μl Hamilton syringe and infused manually over a one minute period. Mice were acclimated for approximately 2 weeks to drinking from two bottles (continuous 24 hour/day access), one containing water and the other containing 20% ethanol, and body weights were recorded weekly. Following acclimation, mice were distributed to groups based on the last 4-days of baseline ethanol consumption (g/kg/day).
Mice were weighed and ethanol, water, and food were removed from their cages two hours before the beginning of the dark cycle. For the study with i.c.v. infusion of MC4R agonist, C57B1/6J mice were given infusion of either 1.0 or 3.0 μg of the MC4R-selective agonist, cyclo(NH—CH2—CH2—CO-His-D-Phe-Arg-Trp-Glu)-NH2 (Compound A, Phoenix Pharmaceuticals, Inc., Belmont, Calif.) dissolved in aCSF (ns=7 and 8, respectively) or an equal volume of aCSF (n=10) one hour before the beginning of the dark cycle. The 20% ethanol solution, water, and food were returned immediately before the dark cycle and consumption measures were recorded 4 hours and 24 hours later. One-way (drug) ANOVAs were used to assess consumption of 20% ethanol following i.c.v. infusion of MC4R agonist or aCSF.

Assay [11] addresses T1, MC5R. Conditions: cited from earlier work.
Target sequence in this assay (P33032 whole entry, species assumed): as the sequence (P33032 whole entry) above

Bridge positions count the residues as written; N and C are the ends. Square brackets hold non-standard residues; d marks the D form. Peptide text beside a SMILES is read from it. βAla = NCCC(=O)O

T4 sequence (Q01726 whole entry): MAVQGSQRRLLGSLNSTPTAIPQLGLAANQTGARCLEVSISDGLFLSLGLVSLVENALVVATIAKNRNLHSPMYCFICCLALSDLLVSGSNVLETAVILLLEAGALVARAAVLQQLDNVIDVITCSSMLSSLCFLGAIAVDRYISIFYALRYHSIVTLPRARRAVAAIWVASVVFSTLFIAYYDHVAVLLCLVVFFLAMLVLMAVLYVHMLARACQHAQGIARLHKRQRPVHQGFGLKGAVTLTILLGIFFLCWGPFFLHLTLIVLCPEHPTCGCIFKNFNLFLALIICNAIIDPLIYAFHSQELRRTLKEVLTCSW

Consider `N=C(N)NCCC[C@@H]1NC(=O)[C@@H](Cc2ccccc2)NC(=O)[C@H](Cc2c[nH]cn2)NC(=O)CCNC(=O)CC[C@@H](C(N)=O)NC(=O)[C@H](Cc2c[nH]c3ccccc23)NC1=O` [Example 8] ([βAla]H[dF]RWE-NH2; lactam N-6 (inferred)), for which the EC50 worked out at 1900 nM in assay [1], 0.53 nM in assay [2], 59 nM in assay [5] and 11 nM in assay [6]. The “Selectivity cAMP EC50 1R/4R” value in assay [2] (ratio of EC50 hMC-1R / hMC-4R) is on record as 20.75. Moreover, the “Selectivity cAMP EC50 3R/4R” value in assay [2] (ratio of EC50 hMC-3R / hMC-4R) is 111. For the same compound, the “Selectivity cAMP EC50 5R/4R” value in assay [2] (ratio of EC50 hMC-5R / hMC-4R) worked out at 3585. Also, the IC50 stood at 4600 nM in assay [3], 4 nM in assay [4] (read-out: Binding Assay IC50 hMC-4R) and 490 nM in [7]. In addition, in assay [4] (ratio of IC50 hMC-3R / hMC-4R), the “Selectivity Binding IC50 3R/4R” value stood at 122.5. Also, the “Selectivity Binding IC50 5R/4R” value in assay [4] (ratio of IC50 hMC-5R / hMC-4R) was 1150.

Take MTII: in assay [8], the “effect on voluntary ethanol drinking” value is given as “significantly reduces voluntary ethanol drinking”.

Turning to “cyclo(NH—CH2—CH2—CO-His-D-Phe-Arg-Trp-Glu)-NH2 (FRWE; cyclic with beta-alanine linker, His, C-terminal amide; printed: Phe-Arg-Trp-Glu) [Compound A]”, in [9], the “selectivity for MC4R over MC3R” value is 90 fold and the “selectivity for MC4R over MC5R” value is given as “greater than 2000 fold”. In addition, the “reduction of alcohol consumption” value in assay [10] (1.0 μg i.c.v.) turned out to be 67%. Also, the “reduction of alcohol consumption” value in [10] (3.0 μg i.c.v.) came out at 86%. Moreover, the “effect on ethanol drinking” value in assay [10] (C57BL/6J mice) is reported as “significant reduction of ethanol drinking”. Besides, the “less alcohol consumed than untreated controls” value in [10] (C57BL/6J mice, dose not given) is on record as “up to 86%”. Moreover, the “binding and activation of MC5R” value in assay [11] is “extremely weak binding and activation of MC5R”.
